In patent US20260297080A1, “BICYCLIC COMPOUNDS AS CDK INHIBITORS” (BeOne Medicines I GmbH, priority 2022, published 2026):

Tests used:
[1] = biological target: CDK1/Cyclin B1 (Homo sapiens, UniProt P06493); assay: CDK1/Cyclin B1 Biochemical Assay (TR-FRET), 0.015 mM ATP; conditions: 0.15 μM Rb (Ser780)-biotin substrate, pH7.0, 60 min preincubation, 120 min reaction, room temperature
In short: (§1)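 Kinase preincubated with compound (0–10 μM) 60 min at room temperature, then reaction started with ATP and 0.15 μM Rb (Ser780)-biotin peptide and run 120 min in HEPES pH 7.0 buffer with 50 mM MgCl2. Phospho-Rb detected by Eu-cryptate anti-pRb(Ser780)/streptavidin-XL665 TR-FRET (665/620 nm ratio); IC50 from four-parameter logistic fit.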

[2] = biological target: CDK2/Cyclin E1 (Homo sapiens, UniProt P24941); assay: CDK2/Cyclin E1 Biochemical Assay (TR-FRET), 0.060 mM ATP; conditions: 0.15 μM Rb (Ser780)-biotin substrate, pH7.0, 60 min preincubation, 120 min reaction, room temperature
In short: as §1

Sequence of CDK1/Cyclin B1 (P06493 whole entry): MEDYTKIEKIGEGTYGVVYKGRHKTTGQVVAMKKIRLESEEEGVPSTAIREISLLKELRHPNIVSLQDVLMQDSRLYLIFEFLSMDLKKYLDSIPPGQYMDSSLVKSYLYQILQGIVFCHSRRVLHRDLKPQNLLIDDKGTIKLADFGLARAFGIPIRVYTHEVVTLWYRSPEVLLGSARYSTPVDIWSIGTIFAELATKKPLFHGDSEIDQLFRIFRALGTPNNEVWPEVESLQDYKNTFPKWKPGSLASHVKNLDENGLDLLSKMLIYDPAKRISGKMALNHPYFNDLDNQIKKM
Sequence of CDK1/Cyclin B1 (P14635 whole entry partner): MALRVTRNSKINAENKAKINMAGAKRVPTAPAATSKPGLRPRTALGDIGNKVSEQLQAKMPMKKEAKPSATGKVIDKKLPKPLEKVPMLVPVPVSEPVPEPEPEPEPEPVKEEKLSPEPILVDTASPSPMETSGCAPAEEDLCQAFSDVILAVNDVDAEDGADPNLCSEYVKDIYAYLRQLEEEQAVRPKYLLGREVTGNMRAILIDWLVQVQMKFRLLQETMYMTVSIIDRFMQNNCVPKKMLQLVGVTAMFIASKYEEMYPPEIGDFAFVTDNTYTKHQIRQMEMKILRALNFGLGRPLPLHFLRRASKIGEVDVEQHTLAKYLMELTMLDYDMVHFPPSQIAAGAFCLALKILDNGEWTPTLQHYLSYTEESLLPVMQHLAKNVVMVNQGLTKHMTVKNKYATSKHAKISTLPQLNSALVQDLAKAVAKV

Row | Structure (SMILES) | IC50 [1] [nM] | IC50 [2] [nM]
1 | CN1c2ccc(Nc3cc([C@@H]4CC[C@H](OC(=O)NC(C)(C)CO)C4)[nH]n3)cc2CS1(=O)=O (single isomer, unassigned) [Example 325b, cis-3-(3-((1-methyl-2,2-dioxido-1,3-dihydrobenzo[c]isothiazol-5-yl)amino)-1H-pyrazol-5-yl)cyclopentyl(1-hydroxy-2-methylpropan-2-yl)carbamate] | 71 | 2.3
2 | Cc1c(Nc2cc([C@@H]3CC[C@H](OC(=O)NC(C)C)C3)[nH]n2)ccc2c1CNS2(=O)=O (relative stereo) [Example 34, cis-3-(3-((4-methyl-1,1-dioxido-2,3-dihydrobenzo[d]isothiazol-5-yl)amino)-1H-pyrazol-5-yl)cyclopentyl isopropylcarbamate] | 81 | 1.9
3 | CC(C)NC(=O)O[C@H]1CC[C@@H](c2cc(Nc3cc4c(cc3F)S(=O)(=O)N(C(C)C)C4)n[nH]2)C1 (relative stereo) [Example 49, cis-3-(3-((6-fluoro-2-isopropyl-1,1-dioxido-2,3-dihydrobenzo[d]isothiazol-5-yl)amino)-1H-pyrazol-5-yl)cyclopentyl isopropylcarbamate] | > 10000 | 758
4 | CC(C)NC(=O)O[C@H]1CC[C@@H](c2cc(Nc3ccc4c(c3F)CN(C3CCN(Cc5ccccc5)C3)S4(=O)=O)n[nH]2)C1 (relative stereo) [Example 87, cis-3-(3-((2-(1-benzylpyrrolidin-3-yl)-4-fluoro-1,1-dioxido-2,3-dihydrobenzo[d]isothiazol-5-yl)amino)-1H-pyrazol-5-yl)cyclopentyl isopropylcarbamate] | 1090 | 29
5 | CN1c2ccc(Nc3cc([C@@H]4CC[C@H](OC(=O)NC5(C)CCOC5)C4)[nH]n3)c(F)c2CS1(=O)=O (single isomer, unassigned) [Example 349c, cis-3-(3-((4-fluoro-1-methyl-2,2-dioxido-1,3-dihydrobenzo[c]isothiazol-5-yl)amino)-1H-pyrazol-5-yl)cyclopentyl(3-methyltetrahydrofuran-3-yl)carbamate] | 78 | 1.9
6 | CC(NC(=O)O[C@H]1CC[C@@H](c2cc(Nc3ccc4c(c3F)CN(C)S4(=O)=O)n[nH]2)C1)C1COC1 (relative stereo) [Example 337, cis-3-(3-((4-fluoro-2-methyl-1,1-dioxido-2,3-dihydrobenzo[d]isothiazol-5-yl)amino)-1H-pyrazol-5-yl)cyclopentyl(1-(oxetan-3-yl)ethyl)carbamate] | 1730 | 42
7 | CC(C)NC(=O)O[C@H]1CC[C@@H](c2cc(Nc3ccc4c(c3F)CS(=O)(=O)N4C3COC3)n[nH]2)C1 (single isomer, unassigned) [Example 259b, cis-3-(3-((4-fluoro-1-(oxetan-3-yl)-2,2-dioxido-1,3-dihydrobenzo[c]isothiazol-5-yl)amino)-1H-pyrazol-5-yl)cyclopentyl isopropylcarbamate] | 157 | 3
8 | CC[C@H](C)NC(=O)O[C@H]1CC[C@@H](c2cc(Nc3cc4c(cc3F)S(=O)(=O)NC4)n[nH]2)C1 (relative stereo) [Example 43, cis-3-(3-((6-fluoro-1,1-dioxido-2,3-dihydrobenzo[d]isothiazol-5-yl)amino)-1H-pyrazol-5-yl)cyclopentyl((S)-sec-butyl)carbamate] | 130 | 1.1
9 | CN1c2ccc(Nc3cc([C@@H]4CC[C@H](OC(=O)NC5(C)COC5)C4)[nH]n3)c(F)c2CS1(=O)=O (single isomer, unassigned) [Example 332a, cis-3-(3-((4-fluoro-1-methyl-2,2-dioxido-1,3-dihydrobenzo[c]isothiazol-5-yl)amino)-1H-pyrazol-5-yl)cyclopentyl(3-methyloxetan-3-yl)carbamate] | 367 | 1.9
10 | COCCN1Cc2cc(Nc3cc([C@@H]4CC[C@H](OC(=O)NC(C)C)C4)[nH]n3)c(F)cc2S1(=O)=O (relative stereo) [Example 48, cis-3-(3-((6-fluoro-2-(2-methoxyethyl)-1,1-dioxido-2,3-dihydrobenzo[d]isothiazol-5-yl)amino-1H-pyrazol-5-yl)cyclopentyl isopropylcarbamate] | > 10000 | 243
11 | CC1NS(=O)(=O)c2ccc(Nc3cc([C@@H]4CC[C@H](OC(=O)NC5(C)CC5)C4)[nH]n3)c(F)c21 (single isomer, unassigned) [Example 52b, cis-3-(3-((4-fluoro-3-methyl-1,1-dioxido-2,3-dihydrobenzo[d]isothiazol-5-yl)amino)-1H-pyrazol-5-yl)cyclopentyl(1-methylcyclopropyl)carbamate] | 153 | 2.7
12 | CC1(NC(=O)O[C@H]2CC[C@@H](c3cc(Nc4ccc5c(c4F)CNS5(=O)=O)n[nH]3)C2)CCOC1 (single isomer, unassigned) [Example 162d, cis-3-(3-((4-fluoro-1,1-dioxido-2,3-dihydrobenzo[d]isothiazol-5-yl)amino)-1H-pyrazol-5-yl)cyclopentyl(3-methyltetrahydrofuran-3-yl)carbamate] | 158 | 3.7
13 | CN1c2ccc(Nc3cc([C@@H]4CC[C@H](OC(=O)NC(C)(C)C)C4)[nH]n3)cc2CS1(=O)=O [Example 391b] | 7.8 | 0.9
14 | CC1(NC(=O)O[C@H]2CC[C@@H](c3cc(Nc4ccc5c(c4F)CN(C4COC4)S5(=O)=O)n[nH]3)C2)CC1 (relative stereo) [Example 135, cis-3-(3-((4-fluoro-2-(oxetan-3-yl)-1,1-dioxido-2,3-dihydrobenzo[d]isothiazol-5-yl)amino)-1H-pyrazol-5-yl)cyclopentyl(1-methylcyclopropyl)carbamate] | 320 | 4.3
15 | CC(C)NC(=O)O[C@H]1CC[C@@H](c2cc(Nc3ccc4c(c3F)CN(C[C@H](N)C(C)(C)C)S4(=O)=O)n[nH]2)C1 (relative stereo) [Example 99, cis-3-(3-((2-((R)-2-amino-3,3-dimethylbutyl)-4-fluoro-1,1-dioxido-2,3-dihydrobenzo[d]isothiazol-5-yl)amino)-1H-pyrazol-5-yl)cyclopentyl isopropylcarbamate] | 529 | 12
16 | O=C(NCCC(F)(F)F)O[C@H]1CC[C@@H](c2cc(Nc3ccc4c(c3F)CNS4(=O)=O)n[nH]2)C1 (single isomer, unassigned) [Example 154b, cis-3-(3-((4-fluoro-1,1-dioxido-2,3-dihydrobenzo[d]isothiazol-5-yl)amino)-1H-pyrazol-5-yl)cyclopentyl(3,3,3-trifluoropropyl)carbamate] | 69 | 3.5
17 | O=C(O[C@H]1CC[C@@H](c2cc(Nc3ccc4c(c3F)CNS4(=O)=O)n[nH]2)C1)N1CCOCC1 (relative stereo) [Example 373, cis-3-(3-((4-fluoro-1,1-dioxido-2,3-dihydrobenzo[d]isothiazol-5-yl)amino)-1H-pyrazol-5-yl)cyclopentyl morpholine-4-carboxylate] | 1380 | 45
18 | COCC(C)(C)NC(=O)O[C@H]1CC[C@@H](c2cc(Nc3ccc4c(c3F)CS(=O)(=O)N4CC(F)(F)F)n[nH]2)C1 (relative stereo) [Example 416, cis-3-(3-((4-fluoro-2,2-dioxido-1-(2,2,2-trifluoroethyl)-1,3-dihydrobenzo[c]isothiazol-5-yl)amino)-1H-pyrazol-5-yl)cyclopentyl(1-methoxy-2-methylpropan-2-yl)carbamate] | 67 | 2.1
19 | CC(C)NC(=O)O[C@H]1CC[C@@H](c2cc(Nc3ccc4c(c3)CCS(=O)(=O)N4)n[nH]2)C1 (single isomer, unassigned) [Example 246a, cis-3-(3-((2,2-dioxido-3,4-dihydro-1H-benzo[c][1,2]thiazin-6-yl)amino)-1H-pyrazol-5-yl)cyclopentyl isopropylcarbamate] | 201 | 3.4
20 | O=C(O[C@H]1CC[C@@H](c2cc(Nc3ccc4c(c3)CS(=O)(=O)N4)n[nH]2)C1)N1CCOCC1 (relative stereo) [Example 382, cis-3-(3-((2,2-dioxido-1,3-dihydrobenzo[c]isothiazol-5-yl)amino)-1H-pyrazol-5-yl)cyclopentyl morpholine-4-carboxylate] | 214 | 9.7
21 | CC1(NC(=O)O[C@H]2CC[C@@H](c3cc(Nc4ccc5c(c4F)CN(C4CC4)S5(=O)=O)n[nH]3)C2)COC1 (relative stereo) [Example 372, cis-3-(3-((2-cyclopropyl-4-fluoro-1,1-dioxido-2,3-dihydrobenzo[d]isothiazol-5-yl)amino)-1H-pyrazol-5-yl)cyclopentyl(3-methyloxetan-3-yl)carbamate] | 395 | 6.8
22 | CN1c2ccc(Nc3cc([C@@H]4CC[C@H](OC(=O)NC5(CO)CC5)C4)[nH]n3)cc2CS1(=O)=O (relative stereo) [Example 342, cis-3-(3-((1-methyl-2,2-dioxido-1,3-dihydrobenzo[c]isothiazol-5-yl)amino)-1H-pyrazol-5-yl)cyclopentyl(1-(hydroxymethyl)cyclopropyl)carbamate] | 61 | 4.9
23 | CC(C)NC(=O)O[C@H]1CC[C@@H](c2cc(Nc3ccc4c(c3C(F)(F)F)CNS4(=O)=O)n[nH]2)C1 (relative stereo) [Example 22, cis-3-(3-((1,1-dioxido-4-(trifluoromethyl)-2,3-dihydrobenzo[d]isothiazol-5-yl)amino)-1H-pyrazol-5-yl)cyclopentyl isopropylcarbamate] | > 10000 | 202
